According to paper PMC6748986, “Potent modulation of the CepR quorum sensing receptor and virulence in a Burkholderia cepacia complex member using non-native lactone ligands” (Scientific Reports, 2019):
Read-outs that look alike come from different tables or passages of the source.

Columns and labels:
B. multivorans ATCC17616 = assay: C. elegans survival assay, B. multivorans infection; type: in vivo; details: C. elegans N2 infected with B. multivorans; for Effect on survival of Bm-infected worms (antagonists): 50 μM for antagonists; for Effect on survival of Bm-infected worms (agonists): 1 μM for agonists, relative to untreated worms
Text: We next assessed the effects of our lead CepR modulators on exacerbating or alleviating infections by a Bcc member using the nematode C. elegans as a model of pathogenicity. We infected N2 nematodes with B. multivorans ATCC17616 in the presence of compound, and assessed survival of worms over time (see Methods)[13],[35],[53]. None of the compounds tested caused measurable toxicity effects in uninfected worms under these conditions. […] Our results here, using chemical CepR modulators, appear to replicate these effects in B. multivorans nematode infections.
The C. elegans survival assay was based on previously reported procedures[35],[65]. To synchronize worms, eggs were harvested by hypochlorite bleaching (5 min in 1 mL 5% bleach, 0.25 mL 5 M NaOH, 3.75 mL H2O), and grown on Nematode Growth Media (NGM) + E. coli OP50 at 21 °C. B. multivorans was grown overnight with the compound of interest in LB medium (1 μM for agonists, 50 μM for antagonists), and then the overnight culture was centrifuged, resuspended in the assay medium, standardized to OD600 = 0.8, and 25 μL of this culture was used per condition. CFUs of these standardized cultures were used to confirm that bacteria numbers were relatively the same. For the survival assay, synchronized worms (L4 stage) were suspended in liquid NGM media containing bacteria and compound in 96-well plates (100 μL total volume). […] Plates were incubated at 25 °C, after which they were analyzed by a dissecting microscope. The fraction of dead worms was determined by scoring the number of dead worms and the total number of worms in each well. At least 30 nematodes were used for each well, and each assay was performed at least in duplicate on a single day (n ≥ 60). Survival assays were then repeated at least once on different days to verify patterns. Compound effect on worm survival rarely varied between replicates, but the overall worm susceptibility varied among assays. Kaplan-Meier survival curves were calculated using GraphPad Prism (v. 7.0) software.

CepR = target: T1, CepR (Burkholderia multivorans, UniProt Q93PF7); assay: CepR agonism in B. multivorans cepI::lacZ reporter (Bm-reporter); type: cell-based; details: for activation at 100 µM: read-out: Act%; for Emax: read-out: Maximal Activation (%)
T1 sequence (Q93PF7 1-239): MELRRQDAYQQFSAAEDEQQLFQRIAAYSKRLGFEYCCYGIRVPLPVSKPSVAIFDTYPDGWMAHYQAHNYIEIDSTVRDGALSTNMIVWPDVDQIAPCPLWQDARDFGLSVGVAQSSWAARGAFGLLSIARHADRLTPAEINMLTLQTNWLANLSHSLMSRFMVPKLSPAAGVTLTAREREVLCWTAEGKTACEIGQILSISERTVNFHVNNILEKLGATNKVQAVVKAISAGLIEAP
Text: We next sought to assess if the CepR modulators identified in the Ec-reporter maintained their activities in a member of the Bcc. For these studies, we generated a B. multivorans cepI::lacZ reporter organism (Bm-reporter) using standard allelic exchange methods (see Methods). Along with B. cenocepacia, B. multivorans is one of the most commonly isolated Bcc members[6],[44]. We note that small molecules must contend with a different cellular environment in the native organism relative to E. coli[48]; however, as both CepR and the cepI promoter are highly conserved among Bcc species (Fig. S3), we reasoned that the majority of compounds identified in the Ec-reporter (containing B. cenocepacia versions of the cepI promoter and the cepR gene) would maintain their relative activity profiles in CepR in B. multivorans. […] Similar to the Ec-reporter, CepR binding to the cepI promoter then induces β-galactosidase production, allowing for the quantitation of CepR activity. Using the Bm-reporter organism, we observed robust activity for CepR in response to C8-AHL (EC50 = 0.7 nM, Table 3).
The B. multivorans cepI::lacZ strain was used to obtain dose-response data for CepR in response to synthetic AHLs. Overnight cultures of B. multivorans cepI::lacZ were grown in LB medium at 37 °C with shaking (225 rpm). Aliquots (200 μL) of a 1:10 dilution of this overnight culture were plated into 96-well plates containing varying concentrations of compound, and then grown for 4 h at 37 °C with shaking (225 rpm). β-galactosidase production was measured as described above for E. coli, with the following changes: permeabilized cells were incubated at 25 °C with substrate CPRG for ~10 min until positive control wells developed a deep red color. For agonism assays, synthetic compound was screened alongside and compared to the native ligand, C8-AHL (100 μM). For antagonism assays, the concentration of native ligand utilized was 5 nM (approximately equal to twice its EC50 value).

O=C(CC1CCCC1)N[C@H]1CCOC1=O [Compound B12]
Effect on survival of Bm-infected worms (antagonists) (B. multivorans ATCC17616): prolonged nematode survival

O=C(Cc1cccc(Br)c1)N[C@H]1CCOC1=O [Compound C8]
Effect on survival of Bm-infected worms (antagonists) (B. multivorans ATCC17616): prolonged nematode survival

O=C(CCc1ccc(C(F)(F)F)cc1)N[C@H]1CCOC1=O [Compound E35]
EC50 (CepR): 0.022 nM
activation at 100 µM (CepR): 98%
Emax (CepR): 98%

O=C(Cc1cccc(C(F)(F)F)c1)N[C@H]1CCOC1=O [Compound E3]
Effect on survival of Bm-infected worms (antagonists) (B. multivorans ATCC17616): prolonged nematode survival
activation at 100 µM (CepR): 3.1%

O=C(CCc1ccc([N+](=O)[O-])cc1)N[C@H]1CCOC1=O [Compound E37]
Effect on survival of Bm-infected worms (agonists) (B. multivorans ATCC17616): promoted worm killing
EC50 (CepR): 0.0025 nM
EC50 fold lower than C8-AHL (CepR; Bm-reporter): ~ 250 fold
activation at 100 µM (CepR): 91%
Emax (CepR): 91%

CCCCCCCC(=O)N[C@H]1CCOC1=O [Compound C8-AHL, N-octanoyl L-homoserine lactone, reference compound]
Effect on survival of Bm-infected worms (agonists) (B. multivorans ATCC17616): significantly increased worm death
EC50 (CepR): 0.7 nM
activation at 100 µM (CepR): 100%
Emax (CepR): 100%

CCCCCC(O)CC(=O)N[C@H]1CCOC1=O (some centres unmarked) [3’OH-C8-AHL, reference compound]
Effect on survival of Bm-infected worms (agonists) (B. multivorans ATCC17616): did not appear to affect worm survival
EC50 (CepR; Bm-reporter, agonism dose-response, read-out: EC50): ≥ 980 nM
Maximal Activation (%) (CepR; Bm-reporter, activity for 100 μM C8-AHL set to 100%, error ±10%): 78%
Act% (CepR; Table S4, Bm-reporter, screening conc. 100 μM): 78%

O=C(CCc1ccc(I)cc1)N[C@H]1CCOC1=O [Compound E32]
EC50 (CepR): 0.08 nM
activation at 100 µM (CepR): 110%
Emax (CepR): 110%
